Laboratory results reported in US11014929B2, “Pyrazolopyrimidine compounds and uses thereof” (Incyte Corporation, priority 2016, dated 2021).

Target: HPK1 (Homo sapiens (Human), UniProt Q92918)
Test: HPK1 Kinase Binding Assay
Details: LanthaScreen tracer 222 binding, active HPK1, one hour incubation at 25° C.
Procedure, shortened: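 This is a LanthaScreen tracer-binding format: a tracer 222/Eu-anti-GST antibody mix (18 nM and 4 nM solution) is added to active HPK1 (4 nM solution) with 3-fold, 11-point compound dilutions. Incubation is 1 h at 25 °C in HEPES pH 7.5 buffer before reading, and Ki is determined.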

Chain of HPK1 (Q92918 1-346): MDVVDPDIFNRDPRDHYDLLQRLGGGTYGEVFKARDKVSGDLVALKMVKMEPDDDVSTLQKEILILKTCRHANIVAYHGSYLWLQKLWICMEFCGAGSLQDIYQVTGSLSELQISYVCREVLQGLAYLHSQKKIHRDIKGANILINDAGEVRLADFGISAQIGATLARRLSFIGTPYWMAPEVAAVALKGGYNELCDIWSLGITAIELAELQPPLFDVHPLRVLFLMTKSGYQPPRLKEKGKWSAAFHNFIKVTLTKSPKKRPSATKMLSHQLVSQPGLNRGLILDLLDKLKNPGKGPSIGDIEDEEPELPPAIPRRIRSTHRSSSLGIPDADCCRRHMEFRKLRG

| SMILES | Ki |
| --- | --- |
| Cc1c2c(cc(F)c1-c1ncc3[nH]nc(-c4ccnc(N5CCN(C)CC5)c4)c3n1)CCNC2 [Example 107, 6-Fluoro-8-methyl-7-(3-(2-(4-methylpiperazin-1-yl)pyridin-4-yl)-1H-pyrazolo[4,3-d]pyrimidin-5-yl)-1,2,3,4-tetrahydroisoquinoline] | ≤ 100 nM |
| CC(=O)N1CCN(c2ccc(-c3n[nH]c4cnc(-c5c(F)cc6c(c5C)CNCC6)nc34)cc2)CC1 [Example 108, 1-(4-(4-(5-(6-Fluoro-8-methyl-1,2,3,4-tetrahydroisoquinolin-7-yl)-1H-pyrazolo[4,3-d]pyrimidin-3-yl)phenyl)piperazin-1-yl)ethanone] | ≤ 100 nM |
| Cc1c2c(cc(F)c1-c1ncc3[nH]nc(-c4ccc(N5CCOCC5)nc4)c3n1)CCNC2 [Example 109, 4-(5-(5-(6-Fluoro-8-methyl-1,2,3,4-tetrahydroisoquinolin-7-yl)-1H-pyrazolo[4,3-d]pyrimidin-3-yl)pyridin-2-yl)morpholine] | ≤ 100 nM |
| Cc1c2c(cc(F)c1-c1ncc3[nH]nc(-c4ccc(N5CCN(C)CC5)nc4)c3n1)CCNC2 [Example 110, 6-Fluoro-8-methyl-7-(3-(6-(4-methylpiperazin-1-yl)pyridin-3-yl)-1H-pyrazolo[4,3-d]pyrimidin-5-yl)-1,2,3,4-tetrahydroisoquinoline] | ≤ 100 nM |
| Cc1c2c(cc(F)c1-c1ncc3[nH]nc(-c4ccc(N5CCN(C)CC5)cc4)c3n1)CCNC2 [Example 111, 6-Fluoro-8-methyl-7-(3-(4-(4-methylpiperazin-1-yl)phenyl)-1H-pyrazolo[4,3-d]pyrimidin-5-yl)-1,2,3,4-tetrahydroisoquinoline] | ≤ 100 nM |
| Cc1cc2c(c(F)c1-c1ncc3[nH]nc(-c4ccc(N5CCN(C)CC5)nc4)c3n1)CNCC2 [Example 112, 8-Fluoro-6-methyl-7-(3-(6-(4-methylpiperazin-1-yl)pyridin-3-yl)-1H-pyrazolo[4,3-d]pyrimidin-5-yl)-1,2,3,4-tetrahydroisoquinoline] | ≤ 100 nM |
| CNC1CCc2c1cc(F)c(-c1ncc3[nH]nc(-c4ccc(N5CCOCC5)nc4)c3n1)c2F (centres unmarked) [Example 113, 4,6-Difluoro-N-methyl-5-(3-(6-morpholinopyridin-3-yl)-1H-pyrazolo[4,3-d]pyrimidin-5-yl)-2,3-dihydro-1H-inden-1-amine] | ≤ 100 nM |
| CNC1CCc2c1cc(F)c(-c1ncc3[nH]nc(-c4cnc(N5CCN(C)CC5)nc4)c3n1)c2F (centres unmarked) [Example 114, 4,6-Difluoro-N-methyl-5-(3-(2-(4-methylpiperazin-1-yl)pyrimidin-5-yl)-1H-pyrazolo[4,3-d]pyrimidin-5-yl)-2,3-dihydro-1H-inden-1-amine] | ≤ 100 nM |
| CNC1CCc2cc(F)c(-c3ncc4[nH]nc(-c5ccc(N6CCOCC6)nc5)c4n3)c(F)c2C1 (centres unmarked) [Example 115, 6,8-Difluoro-N-methyl-7-(3-(6-morpholinopyridin-3-yl)-1H-pyrazolo[4,3-d]pyrimidin-5-yl)-1,2,3,4-tetrahydronaphthalen-2-amine] | ≤ 100 nM |
| CNC1CCCc2c1cc(F)c(-c1ncc3[nH]nc(-c4ccc(N5CCOCC5)nc4)c3n1)c2F (centres unmarked) [Example 116, 5,7-Difluoro-N-methyl-6-(3-(6-morpholinopyridin-3-yl)-1H-pyrazolo[4,3-d]pyrimidin-5-yl)-1,2,3,4-tetrahydronaphthalen-1-amine] | ≤ 100 nM |
| NC1CCCc2c1cc(F)c(-c1ncc3[nH]nc(-c4ccc(N5CCOCC5)nc4)c3n1)c2F (centres unmarked) [Example 117, 5,7-Difluoro-6-(3-(6-morpholinopyridin-3-yl)-1H-pyrazolo[4,3-d]pyrimidin-5-yl)-1,2,3,4-tetrahydronaphthalen-1-amine] | ≤ 100 nM |
| NC1CCc2cc(F)c(-c3ncc4[nH]nc(-c5ccc(N6CCOCC6)nc5)c4n3)c(F)c21 (centres unmarked) [Example 118, 5,7-Difluoro-6-(3-(6-morpholinopyridin-3-yl)-1H-pyrazolo[4,3-d]pyrimidin-5-yl)-2,3-dihydro-1H-inden-1-amine] | ≤ 100 nM |
| COc1c(-c2ncc3[nH]nc(-c4ccc(N5CCOCC5)nc4)c3n2)c(F)cc2c1C(N)CC2 (centres unmarked) [Example 119, 5-Fluoro-7-methoxy-6-(3-(6-morpholinopyridin-3-yl)-1H-pyrazolo[4,3-d]pyrimidin-5-yl)-2,3-dihydro-1H-inden-1-amine] | ≤ 100 nM |
| CNC1CCCc2c1ccc(F)c2-c1ncc2[nH]nc(-c3ccc(N4CCN(C)CC4)nc3)c2n1 (centres unmarked) [Example 120, 6-Fluoro-N-methyl-5-(3-(6-(4-methylpiperazin-1-yl)pyridin-3-yl)-1H-pyrazolo[4,3-d]pyrimidin-5-yl)-1,2,3,4-tetrahydronaphthalen-1-amine] | ≤ 100 nM |
| CN1CCN(c2ccc(-c3n[nH]c4cnc(-c5c(F)ccc6c5CCCC6N)nc34)cc2)CC1 (centres unmarked) [Example 121, 6-Fluoro-5-(3-(4-(4-methylpiperazin-1-yl)phenyl)-1H-pyrazolo[4,3-d]pyrimidin-5-yl)-1,2,3,4-tetrahydronaphthalen-1-amine] | ≤ 100 nM |
| CNCc1cc(F)c(-c2ncc3[nH]nc(-c4ccc(N5CCC(C)(O)CC5)nc4)c3n2)c(F)c1 [Example 122, 1-(5-(5-(2,6-Difluoro-4-((methylamino)methyl)phenyl)-1H-pyrazolo[4,3-d]pyrimidin-3-yl)pyridin-2-yl)-4-methylpiperidin-4-ol] | ≤ 100 nM |
| CNCc1cc(F)c(-c2ncc3[nH]nc(-c4ccc(N5CCN(CCOC)CC5)cc4)c3n2)c(F)c1 [Example 123, 1-(3,5-Difluoro-4-(3-(4-(4-(2-methoxyethyl)piperazin-1-yl)phenyl)-1H-pyrazolo[4,3-d]pyrimidin-5-yl)phenyl)-N-methylmethanamine] | ≤ 100 nM |
| CCN1CCN(c2ccc(-c3n[nH]c4cnc(-c5c(F)cc(CNC)cc5C(F)(F)F)nc34)cc2)CC1 [Example 124, 1-(4-(3-(4-(4-Ethylpiperazin-1-yl)phenyl)-1H-pyrazolo[4,3-d]pyrimidin-5-yl)-3-fluoro-5-(trifluoromethyl)phenyl)-N-methylmethanamine] | ≤ 100 nM |
| CCN1CCN(c2ccc(-c3n[nH]c4cnc(-c5c(C)cc(C6CCCCN6)cc5F)nc34)cc2)CC1 (centres unmarked) [Example 125, 3-(4-(4-Ethylpiperazin-1-yl)phenyl)-5-(2-fluoro-6-methyl-4-(piperidin-2-yl)phenyl)-1H-pyrazolo[4,3-d]pyrimidine] | ≤ 100 nM |
| CNCc1cc(F)c(-c2ncc3[nH]nc(-c4ccc(N5CCO[C@@H](COC)C5)nc4)c3n2)c(C(F)(F)F)c1 [Example 126, (R)-1-(3-Fluoro-4-(3-(6-(2-(methoxymethyl)morpholino)pyridin-3-yl)-1H-pyrazolo[4,3-d]pyrimidin-5-yl)-5-(trifluoromethyl)phenyl)-N-methylmethanamine] | ≤ 100 nM |
